In US20230085307A1, “PYRIDAZINONE COMPOUND AND HERBICIDE” (NISSAN CHEMICAL CORPORATION, priority 2019, published 2023):

Legend:
Chinese sprangletop = assay: Test Example 3: herbicidal effect by foliage application, Wagner pot (Table 18, symbol D); assay type: in vivo, chinese sprangletop (Leptochloa chinensis); conditions: 320 g/ha
In short: (§1)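 Plants were sown in alluvial soil held under 0.1–0.5 cm standing water and grown 14 days in a greenhouse at 25–30 °C. An emulsifiable formulation, water-diluted to the set dose, was then sprayed onto the foliage, and effects were scored three weeks later using previously defined criteria.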

chickweed [1] = assay: Test Example 4: herbicidal effect by soil treatment (Table 19, symbol P); assay type: in vivo, common chickweed (Stellaria media); conditions: amount of applied herbicide 320 g/ha
In short: (§2)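 Seeds were sown in sterilized diluvial soil and covered with about 1.5 cm of soil. An emulsion formulation diluted with water to a predetermined herbicide amount was sprayed evenly onto the soil surface. Plants grew in a greenhouse at 25° C. to 30° C., and the effect was scored three weeks after application using criteria from an earlier test.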

velvetleaf [2] = assay: Test Example 5: herbicidal effect by foliage application, plastic box (Table 20, symbol M); assay type: in vivo, velvetleaf (Abutilon theophrasti); conditions: 320 g/ha, foliage application after 14-day growth, evaluated three weeks after application
In short: (§3)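 Plants sown in sterilized diluvial soil and grown 14 days in a greenhouse at 25° C to 30° C, then sprayed on the foliage with the compound's emulsion diluted in water to a predetermined herbicide amount. Injury to weeds and crops scored three weeks after application on a visual rating scale.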

barnyard grass [3] = assay: Test Example 5: herbicidal effect by foliage application, plastic box (Table 20, symbol H); assay type: in vivo, barnyard grass (Echinochloa crus-galli); conditions: 320 g/ha, foliage application after 14-day growth, evaluated three weeks after application
In short: as §3

barnyard grass [4] = assay: Test Example 3: herbicidal effect by foliage application, Wagner pot (Table 18, symbol H); assay type: in vivo, barnyard grass (Echinochloa crus-galli); conditions: 320 g/ha
In short: as §1

lambsquarters [5] = assay: Test Example 4: herbicidal effect by soil treatment (Table 19, symbol O); assay type: in vivo, lambsquarters (Chenopodium album); conditions: amount of applied herbicide 320 g/ha
In short: as §2

velvetleaf [6] = assay: Test Example 4: herbicidal effect by soil treatment (Table 19, symbol M); assay type: in vivo, velvetleaf (Abutilon theophrasti); conditions: amount of applied herbicide 320 g/ha
In short: as §2

persian speedwell [7] = assay: Test Example 5: herbicidal effect by foliage application, plastic box (Table 20, symbol R); assay type: in vivo, Persian speedwell (Veronica persica); conditions: 320 g/ha, foliage application after 14-day growth, evaluated three weeks after application
In short: as §3

southern crabgrass [8] = assay: Test Example 5: herbicidal effect by foliage application, plastic box (Table 20, symbol F); assay type: in vivo, southern crabgrass (Digitaria ciliaris); conditions: 320 g/ha, foliage application after 14-day growth, evaluated three weeks after application
In short: as §3

wild oat [9] = assay: Test Example 4: herbicidal effect by soil treatment (Table 19, symbol I); assay type: in vivo, wild oat (Avena fatua); conditions: amount of applied herbicide 320 g/ha
In short: as §2

chickweed [10] = assay: Test Example 5: herbicidal effect by foliage application, plastic box (Table 20, symbol P); assay type: in vivo, common chickweed (Stellaria media); conditions: 320 g/ha, foliage application after 14-day growth, evaluated three weeks after application
In short: as §3

redroot pigweed [11] = assay: Test Example 5: herbicidal effect by foliage application, plastic box (Table 20, symbol N); assay type: in vivo, redroot pigweed (Amaranthus retroflexus); conditions: 320 g/ha, foliage application after 14-day growth, evaluated three weeks after application
In short: as §3

lambsquarters [12] = assay: Test Example 5: herbicidal effect by foliage application, plastic box (Table 20, symbol O); assay type: in vivo, lambsquarters (Chenopodium album); conditions: 320 g/ha, foliage application after 14-day growth, evaluated three weeks after application
In short: as §3

rice flat sedge = assay: Test Example 3: herbicidal effect by foliage application, Wagner pot (Table 18, symbol E); assay type: in vivo, rice flat sedge (Cyperus iria); conditions: 320 g/ha
In short: as §1

persian speedwell [13] = assay: Test Example 4: herbicidal effect by soil treatment (Table 19, symbol R); assay type: in vivo, Persian speedwell (Veronica persica); conditions: amount of applied herbicide 320 g/ha
In short: as §2

barnyard grass [14] = assay: Test Example 4: herbicidal effect by soil treatment (Table 19, symbol H); assay type: in vivo, barnyard grass (Echinochloa crus-galli); conditions: amount of applied herbicide 320 g/ha
In short: as §2

green foxtail [15] = assay: Test Example 5: herbicidal effect by foliage application, plastic box (Table 20, symbol G); assay type: in vivo, green foxtail (Setaria viridis); conditions: 320 g/ha, foliage application after 14-day growth, evaluated three weeks after application
In short: as §3

redroot pigweed [16] = assay: Test Example 4: herbicidal effect by soil treatment (Table 19, symbol N); assay type: in vivo, redroot pigweed (Amaranthus retroflexus); conditions: amount of applied herbicide 320 g/ha
In short: as §2

green foxtail [17] = assay: Test Example 4: herbicidal effect by soil treatment (Table 19, symbol G); assay type: in vivo, green foxtail (Setaria viridis); conditions: amount of applied herbicide 320 g/ha
In short: as §2

wild oat [18] = assay: Test Example 5: herbicidal effect by foliage application, plastic box (Table 20, symbol I); assay type: in vivo, wild oat (Avena fatua); conditions: 320 g/ha, foliage application after 14-day growth, evaluated three weeks after application
In short: as §3

windgrass [19] = assay: Test Example 5: herbicidal effect by foliage application, plastic box (Table 20, symbol L); assay type: in vivo, windgrass (Apera spica-venti); conditions: 320 g/ha, foliage application after 14-day growth, evaluated three weeks after application
In short: as §3

blackgrass = assay: Test Example 5: herbicidal effect by foliage application, plastic box (Table 20, symbol J); assay type: in vivo, blackgrass (Alopecurus myosuroides); conditions: 320 g/ha, foliage application after 14-day growth, evaluated three weeks after application
In short: as §3

windgrass [20] = assay: Test Example 4: herbicidal effect by soil treatment (Table 19, symbol L); assay type: in vivo, windgrass (Apera spica-venti); conditions: amount of applied herbicide 320 g/ha
In short: as §2

Italian ryegrass [21] = assay: Test Example 4: herbicidal effect by soil treatment (Table 19, symbol K); assay type: in vivo, Italian ryegrass (Lolium multiflorum); conditions: amount of applied herbicide 320 g/ha
In short: as §2

southern crabgrass [22] = assay: Test Example 4: herbicidal effect by soil treatment (Table 19, symbol F); assay type: in vivo, southern crabgrass (Digitaria ciliaris); conditions: amount of applied herbicide 320 g/ha
In short: as §2

Italian ryegrass [23] = assay: Test Example 5: herbicidal effect by foliage application, plastic box (Table 20, symbol K); assay type: in vivo, Italian ryegrass (Lolium multiflorum); conditions: 320 g/ha, foliage application after 14-day growth, evaluated three weeks after application
In short: as §3

SMILES	herbicidal effect on Chinese sprangletop (D) (Chinese sprangletop)	Herbicidal effect by soil treatment, P: chickweed (chickweed [1])	herbicidal effect on M: velvetleaf (evaluation grade 0-5) (velvetleaf [2])	herbicidal effect on H: barnyard grass (evaluation grade 0-5) (barnyard grass [3])	herbicidal effect on barnyard grass (H) (barnyard grass [4])	Herbicidal effect by soil treatment, O: lambsquarters (lambsquarters [5])	Herbicidal effect by soil treatment, M: velvetleaf (velvetleaf [6])	herbicidal effect on R: persian speedwell (evaluation grade 0-5) (persian speedwell [7])	herbicidal effect on F: southern crabgrass (evaluation grade 0-5) (southern crabgrass [8])	Herbicidal effect by soil treatment, I: wild oat (wild oat [9])	herbicidal effect on P: chickweed (evaluation grade 0-5) (chickweed [10])	herbicidal effect on N: redroot pigweed (evaluation grade 0-5) (redroot pigweed [11])	herbicidal effect on O: lambsquarters (evaluation grade 0-5) (lambsquarters [12])	herbicidal effect on rice flat sedge (E) (rice flat sedge)	Herbicidal effect by soil treatment, R: persian speedwell (persian speedwell [13])	Herbicidal effect by soil treatment, H: barnyard grass (barnyard grass [14])	herbicidal effect on G: green foxtail (evaluation grade 0-5) (green foxtail [15])	Herbicidal effect by soil treatment, N: redroot pigweed (redroot pigweed [16])	Herbicidal effect by soil treatment, G: green foxtail (green foxtail [17])	herbicidal effect on I: wild oat (evaluation grade 0-5) (wild oat [18])	other results
COc1ccccc1-c1sc2cc(OS(=O)(=O)C(F)(F)F)ccc2c1-c1c(O)c(C)nn(C)c1=O [3-161]	3 (Herbicidal rate of 40% or more and less than 70%)	0 (Herbicidal rate of 5% or less (almost no effect))	2 (Herbicidal rate of 20% or more and less than 40%)	3 (Herbicidal rate of 40% or more and less than 70%)	5 (Herbicidal rate of 90% or more (almost completely withered))	0 (Herbicidal rate of 5% or less (almost no effect))	0 (Herbicidal rate of 5% or less (almost no effect))	5 (Herbicidal rate of 90% or more (almost completely withered))	0 (Herbicidal rate of 5% or less (almost no effect))	0 (Herbicidal rate of 5% or less (almost no effect))	5 (Herbicidal rate of 90% or more (almost completely withered))	4 (Herbicidal rate of 70% or more and less than 90%)	3 (Herbicidal rate of 40% or more and less than 70%)	3 (Herbicidal rate of 40% or more and less than 70%)	0 (Herbicidal rate of 5% or less (almost no effect))	0 (Herbicidal rate of 5% or less (almost no effect))	3 (Herbicidal rate of 40% or more and less than 70%)	4 (Herbicidal rate of 70% or more and less than 90%)	0 (Herbicidal rate of 5% or less (almost no effect))	0 (Herbicidal rate of 5% or less (almost no effect))	herbicidal effect on L: windgrass (evaluation grade 0-5) (windgrass [19]): 4 (Herbicidal rate of 70% or more and less than 90%); herbicidal effect on J: blackgrass (evaluation grade 0-5) (blackgrass): 4 (Herbicidal rate of 70% or more and less than 90%); Herbicidal effect by soil treatment, L: windgrass (windgrass [20]): 0 (Herbicidal rate of 5% or less (almost no effect)); Herbicidal effect by soil treatment, K: Italian ryegrass (Italian ryegrass [21]): 0 (Herbicidal rate of 5% or less (almost no effect)); Herbicidal effect by soil treatment, F: southern crabgrass (southern crabgrass [22]): 0 (Herbicidal rate of 5% or less (almost no effect)); herbicidal effect on K: Italian ryegrass (evaluation grade 0-5) (Italian ryegrass [23]): 4 (Herbicidal rate of 70% or more and less than 90%)
Cc1nn(C)c(=O)c(-c2c(-c3ccc(OC(F)F)cc3)sc3c(F)cccc23)c1O [4-046]	1 (Herbicidal rate of 5% or more and less than 20%)	3 (Herbicidal rate of 40% or more and less than 70%)	5 (Herbicidal rate of 90% or more (almost completely withered))	5 (Herbicidal rate of 90% or more (almost completely withered))	5 (Herbicidal rate of 90% or more (almost completely withered))	1 (Herbicidal rate of 5% or more and less than 20%)	3 (Herbicidal rate of 40% or more and less than 70%)	5 (Herbicidal rate of 90% or more (almost completely withered))	0 (Herbicidal rate of 5% or less (almost no effect))	0 (Herbicidal rate of 5% or less (almost no effect))	5 (Herbicidal rate of 90% or more (almost completely withered))	5 (Herbicidal rate of 90% or more (almost completely withered))	5 (Herbicidal rate of 90% or more (almost completely withered))	5 (Herbicidal rate of 90% or more (almost completely withered))	5 (Herbicidal rate of 90% or more (almost completely withered))	3 (Herbicidal rate of 40% or more and less than 70%)	5 (Herbicidal rate of 90% or more (almost completely withered))	5 (Herbicidal rate of 90% or more (almost completely withered))	3 (Herbicidal rate of 40% or more and less than 70%)	4 (Herbicidal rate of 70% or more and less than 90%)	herbicidal effect on L: windgrass (evaluation grade 0-5) (windgrass [19]): 5 (Herbicidal rate of 90% or more (almost completely withered)); herbicidal effect on J: blackgrass (evaluation grade 0-5) (blackgrass): 4 (Herbicidal rate of 70% or more and less than 90%); Herbicidal effect by soil treatment, L: windgrass (windgrass [20]): 0 (Herbicidal rate of 5% or less (almost no effect)); Herbicidal effect by soil treatment, K: Italian ryegrass (Italian ryegrass [21]): 3 (Herbicidal rate of 40% or more and less than 70%); Herbicidal effect by soil treatment, F: southern crabgrass (southern crabgrass [22]): 0 (Herbicidal rate of 5% or less (almost no effect)); herbicidal effect on K: Italian ryegrass (evaluation grade 0-5) (Italian ryegrass [23]): 5 (Herbicidal rate of 90% or more (almost completely withered))
